In patent EP4342885A1, “N-(3-(AMINOMETHYL)-PHENYL)-5-(4-PHENYL)-5-(TRIFLUOROMETHYL)-4,5-DIHYDROISOXAZOL-3-AMINE DERIVATIVES AND SIMILAR COMPOUNDS AS PESTICIDES” (priority 2022, dated 2024):

Key:
Type in all cases: in vivo
[1] = test system: Myzus persicae; test: Green peach aphid (Myzus persicae), mixed life stages, systemic test via artificial diet under membrane; settings: 72 h, read-out: mortality in comparison with untreated controls
Text: For evaluating control of Green Peach Aphid through systemic means the test unit consisted of 96-well-microtiter plates containing liquid artificial diet under an artificial membrane. The compounds were formulated using a solution containing 75% v/v water and 25% v/v DMSO. Different concentrations of formulated compounds were pipetted into the aphid diet, using a custom-built pipette, at two replications. After application, 5 - 8 adult aphids were placed on the artificial membrane inside the microtiter plate wells. The aphids were then allowed to suck on the treated aphid diet and incubated at about 23 ± 1°C and about 50 ± 5 % relative humidity for 3 days. Aphid mortality and fecundity was then visually assessed.

[2] = test system: Anthonomus grandis; test: Boll weevil (Anthonomus grandis) control, 96-well microtiter plate insect diet with eggs; settings: 120 h, read-out: mortality in comparison with untreated controls
Experimental: For evaluating control of boll weevil, the test unit consisted of 96-well-microtiter plates containing an insect diet and 5-10 A. grandis eggs.
The compounds were formulated using a solution containing 75% v/v water and 25% v/v DMSO. Different concentrations of formulated compounds were sprayed onto the insect diet at 5µl, using a custom-built micro atomizer, at two replications.
After application, microtiter plates were incubated at about 25 ± 1°C and about 75 ± 5 % relative humidity for 5 days. Egg and larval mortality were then visually assessed.

[3] = test system: Aedes aegypti; test: whole plant or invertebrate; settings: 48 h, larval mortality, 2 days, read-out: mortality in comparison with untreated controls
Experimental: For evaluating control of Yellow Fever Mosquito, the test unit consisted of 96-well-microtiter plates containing 200µl of tap water per well and 5-15 freshly hatched A. aegypti larvae. The active compounds were formulated using a solution containing 75% (v/v) water and 25% (v/v) DMSO. Different concentrations of formulated compounds or mixtures were sprayed onto the insect diet at 2.5µl, using a custom-built micro atomizer, at two replications.
After application, microtiter plates were incubated at 28 ± 1°C, 80 ± 5 % RH for 2 days. Larval mortality was then visually assessed.

[4] = test system: Plutella xylostella; test: Diamond back moth (Plutella xylostella) control, 96-well microtiter plate insect diet with eggs; settings: 120 h, read-out: mortality in comparison with untreated controls
Experimental: For evaluating control of […] (Plutella xylostella) the test unit consisted of 96-well-microtiter plates containing an insect diet and 15-25 P. xylostella eggs.
The compounds or mixtures were formulated using a solution containing 75% water and 25% DMSO. Different concentrations of formulated compounds or mixtures were sprayed onto the insect diet at 5µl, using a custom-built micro atomizer, at two replications.
After application, microtiter plates were incubated at 28 ± 1°C, 80 ± 5 % RH for 5 days. Egg and larval mortality was then visually assessed.

[5] = test system: Heliothis virescens; test: Tobacco budworm (Heliothis virescens) control, 96-well microtiter plate insect diet with eggs; settings: 120 h, read-out: mortality in comparison with untreated controls
Experimental: For evaluating control of Tobacco Budworm, the test unit consisted of 96-well-microtiter plates containing an insect diet and 15-25 H. virescens eggs. The compounds were formulated using a solution containing 75% v/v water and 25% v/v DMSO. Different concentrations of formulated compounds were sprayed onto the insect diet at 10µl, using a custom-built micro atomizer, at two replications. After application, microtiter plates were incubated at about 28 ± 1°C and about 80 ± 5 % relative humidity for 5 days. Egg and larval mortality was then visually assessed.

Measured: mortality at 800 ppm

O=C(CC1CCS(=O)(=O)C1)NCc1cc(NC2=NOC(c3ccc(F)c(Cl)c3)(C(F)(F)F)C2)ccc1Cl (stereo not drawn) [I-49]
≥ 75%: [1] | [2] | [3]

N#CCC(=O)NCc1cc(NC2=NOC(c3ccc(F)c(Cl)c3)(C(F)(F)F)C2)ccc1Cl (stereo not drawn) [I-51]
not listed: [5]
≥ 75%: all other assays above

CS(=O)(=O)N1CC(C(=O)NCc2cc(NC3=NOC(c4ccc(F)c(Cl)c4)(C(F)(F)F)C3)ccc2Cl)C1 (stereo not drawn) [I-46]
not listed: [5]
≥ 75%: all other assays above

O=C(Cn1cncn1)NCc1cc(NC2=NOC(c3ccc(F)c(Cl)c3)(C(F)(F)F)C2)ccc1Cl (stereo not drawn) [I-40]
not listed: [5]
≥ 75%: all other assays above

CN(Cc1cc(NC2=NOC(c3cc(Cl)c(F)c(Cl)c3)(C(F)(F)F)C2)ccc1F)C(=O)C1CC1 (stereo not drawn) [I-17]
not listed: [1]
≥ 75%: all other assays above

O=C(NCc1cc(NC2=NOC(c3cc(Cl)c(F)c(Cl)c3)(C(F)(F)F)C2)ccc1OC(F)(F)F)C1CC1 (stereo not drawn) [I-18]
≥ 75%: all assays above

Cc1ccc(NC2=NOC(c3cc(Cl)c(F)c(Cl)c3)(C(F)(F)F)C2)cc1CNC(=O)C1CC1 (stereo not drawn) [I-20]
≥ 75%: all assays above

O=C(N[C@H]1CCc2ccc(NC3=NOC(c4ccc(F)c(Cl)c4)(C(F)(F)F)C3)cc21)C1CC1 (stereo partly drawn) [III-1]
≥ 75%: all assays above

O=C(Cn1cccn1)NCc1cc(NC2=NOC(c3ccc(F)c(Cl)c3)(C(F)(F)F)C2)ccc1Cl (stereo not drawn) [I-38]
≥ 75%: [4] | [2] | [3]

O=C(CC1OCCO1)NCc1cc(NC2=NOC(c3ccc(F)c(Cl)c3)(C(F)(F)F)C2)ccc1Cl (stereo not drawn) [I-33]
≥ 75%: [4] | [2] | [3]

CCOC(=O)N(C1=NOC(c2cc(Cl)c(F)c(Cl)c2)(C(F)(F)F)C1)c1ccc(F)c(CNC(=O)C2CC2)c1 (stereo not drawn) [I-42]
≥ 75%: all assays above

O=C(CC1CC1)NCc1cc(NC2=NOC(c3cc(Cl)cc(Cl)c3)(C(F)(F)F)C2)ccc1F (stereo not drawn) [I-6]
not listed: [4]
≥ 75%: all other assays above

O=C(CN1CCCC1=O)NCc1cc(NC2=NOC(c3ccc(F)c(Cl)c3)(C(F)(F)F)C2)ccc1Cl (stereo not drawn) [I-31]
≥ 75%: [1] | [3]

O=C(NCc1cc(NC2=NOC(c3cc(Cl)cc(Cl)c3)(C(F)(F)F)C2)ccc1F)c1ccccn1 (stereo not drawn) [I-11]
≥ 75%: [4] | [2]

CCC(=O)NCc1cc(NC2=NOC(c3cc(Cl)cc(Cl)c3)(C(F)(F)F)C2)ccc1F (stereo not drawn) [I-2]
not listed: [3]
≥ 75%: all other assays above

COCC(=O)NCc1cc(NC2=NOC(c3cc(Cl)cc(Cl)c3)(C(F)(F)F)C2)ccc1F (stereo not drawn) [I-9]
≥ 75%: [1] | [2]

N#Cc1ccc(C(=O)NCc2cc(NC3=NOC(c4ccc(F)c(Cl)c4)(C(F)(F)F)C3)ccc2Cl)s1 (stereo not drawn) [I-34]
≥ 75%: [4] | [2] | [3]

CCS(=O)(=O)NCc1cc(NC2=NOC(c3cc(Cl)cc(Cl)c3)(C(F)(F)F)C2)ccc1F (stereo not drawn) [I-13]
≥ 75%: all assays above

CS(=O)(=O)CC(=O)NCc1cc(NC2=NOC(c3cc(Cl)cc(Cl)c3)(C(F)(F)F)C2)ccc1F (stereo not drawn) [I-4]
not listed: [4]
≥ 75%: all other assays above

O=C(CNC(=O)C1CC1)NCc1cc(NC2=NOC(c3ccc(F)c(Cl)c3)(C(F)(F)F)C2)ccc1Cl (stereo not drawn) [I-26]
not listed: [5]
≥ 75%: all other assays above

O=C(NCc1cc(NC2=NOC(c3ccc(F)c(Cl)c3)(C(F)(F)F)C2)ccc1Cl)C1CCC1 (stereo not drawn) [I-23]
≥ 75%: all assays above

CCC(=O)NCc1cc(NC2=NOC(c3ccc(F)c(Cl)c3)(C(F)(F)F)C2)ccc1Cl (stereo not drawn) [I-50]
≥ 75%: all assays above

CS(=O)(=O)NCC(=O)NCc1cc(NC2=NOC(c3ccc(F)c(Cl)c3)(C(F)(F)F)C2)ccc1Cl (stereo not drawn) [I-47]
not listed: [5]
≥ 75%: all other assays above

CCN(C1=NOC(c2cc(Cl)c(F)c(Cl)c2)(C(F)(F)F)C1)c1ccc(F)c(CNC(=O)C2CC2)c1 (stereo not drawn) [I-15]
≥ 75%: all assays above

N#CC1(C(=O)NCc2cc(NC3=NOC(c4ccc(F)c(Cl)c4)(C(F)(F)F)C3)ccc2Cl)CC1 (stereo not drawn) [I-32]
≥ 75%: all assays above

COCCC(=O)NCc1cc(NC2=NOC(c3cc(Cl)cc(Cl)c3)(C(F)(F)F)C2)ccc1F (stereo not drawn) [I-3]
not listed: [4]
≥ 75%: all other assays above

Cn1ncc(C#N)c1C(=O)NCc1cc(NC2=NOC(c3ccc(F)c(Cl)c3)(C(F)(F)F)C2)ccc1Cl (stereo not drawn) [I-37]
≥ 75%: [4] | [3]

COC(=O)N1CCCC1C(=O)NCc1cc(NC2=NOC(c3cc(Cl)cc(Cl)c3)(C(F)(F)F)C2)ccc1F (stereo not drawn) [I-10]
≥ 75%: [2]

O=C(NCc1cc(NC2=NOC(c3cc(Cl)cc(Cl)c3)(C(F)(F)F)C2)ccc1F)c1ncon1 (stereo not drawn) [I-7]
≥ 75%: [2]

O=C(Cc1ccsc1)NCc1cc(NC2=NOC(c3ccc(F)c(Cl)c3)(C(F)(F)F)C2)ccc1Cl (stereo not drawn) [I-44]
not listed: [5]
≥ 75%: all other assays above

CON=CC(=O)NCc1cc(NC2=NOC(c3cc(Cl)cc(Cl)c3)(C(F)(F)F)C2)ccc1F (stereo not drawn) [I-12]
not listed: [3]
≥ 75%: all other assays above

O=C(Cc1ccccc1)NCc1cc(NC2=NOC(c3ccc(F)c(Cl)c3)(C(F)(F)F)C2)ccc1Cl (stereo not drawn) [I-27]
≥ 75%: [3]

O=C(NCc1cc(NC2=NOC(c3ccc(F)c(Cl)c3)(C(F)(F)F)C2)ccc1Cl)C1CC=CC1 (stereo not drawn) [I-29]
not listed: [5]
≥ 75%: all other assays above
